# From patent publication US20080187492A1, “Drosophila Models For Diseases Affecting Learning and Memory” (priority 2004, published 2008)
# Experiments:
# [1] = test system: FS (dFMR1-3+frame shifted rescue fragment) flies; test: Conditioned courtship: immediate recall (0 minute memory), FS flies; format: in vivo, Drosophila melanogaster; conditions: adulthood alone or both
# Experimental: To assess immediate recall (0 minute memory), after the one hour training session with a previously mated female, the male was placed with a virgin target female for a ten-minute interval. This CI was then compared to the courtship level of naive males that had been placed in the training chamber for one hour with no female, before introducing them to a virgin target female for a ten-minute interval. In FIG. 1B the w1118 and Rescue lines show depression of courtship activity after training compared to naive trained males (p<0.005). However, dFMR1-3 and FS mutant lines court just as vigorously after training with a previously mated female as naive trained males, therefore these flies display no experience dependent behavioral plasticity at the time point of immediate recall. This is in spite of the fact that they court to similar levels as w1118 and Rescue lines during the training period. This implicates a deficit in synaptic plasticity for the two mutant lines at immediate recall (0 minute memory). This robust deficit in behavioral plasticity is a critical extension of the previous models of Fragile X syndrome in model organisms, since this has been completely missing in Drosophila models and is subtle in murine models, and particularly since this may be one of the most devastating aspects of the human disease.
# Immediate recall. […]
# [2] = test system: Rescue (dFMR1-3+wild type rescue fragment) flies; test: Quality of naive courtship (progress to later courtship steps), Rescue flies; format: in vivo, Drosophila melanogaster; conditions: 5 day old
# Experimental: In order to determine if MPEP can get into the Drosophila central nervous system (CNS) through feeding behavior, we mixed MPEP into the food at a concentration of 1,000 μg/ml (433.0 μM). Males were raised on CT food and then placed on either CT or M food. Naive males were placed in the training chamber for one hour with no female, and then placed with a virgin target female for a ten-minute interval. The naive courtship behavior was reduced by high MPEP concentration in Rescue (p<0.0001) and FS (p<0.0005) lines, and it was depressed to similar levels by high MPEP treatment in the Rescue and FS groups (FIG. 2A). […] FIG. 2B dissects the steps involved in naive courtship behavior. […] Lowering the dose of MPEP and examining naive courtship. We next decided to try a lower dose of MPEP to 200 μg/ml (86.6 μM) mixed into the food of the Drosophila. In these experiments flies were placed on either CT or M food in the larval stage and then placed on either CT of M food within four hours of eclosion. […] Therefore giving this drug in adulthood only is effective in enhancing naive courtship behavior. […] Further analysis of the quality of courtship that was performed by naive males was assessed by binning the number of males to advance to a particular phase of courtship for each genotype and pharmacologic treatment (FIG. 3B).
smiles,measurement,setting,value
"Cc1cccc(C#Cc2ccccc2)n1 [MPEP, 2-methyl-6-(phenylethynyl)pyridine]",immediate recall,"[1]; 20-day-old, MPEP in development alone",sufficient to restore synaptic plasticity in FS flies
same,immediate recall (courtship immediately after training vs naive),"[1]; 5 day old, MPEP 200 μg/ml in development alone, p<0.0001",sufficient to rescue synaptic plasticity in FS flies
same,quality of naive courtship,[2]; MPEP 200 μg/ml in adulthood only (CT-M),progressed to later phases of courtship to similar levels as all other groups
same,steps involved in naive courtship behavior,"[2]; MPEP 1,000 μg/ml in adulthood, relative to CT-CT Rescue",failed to progress to later steps in courtship behavior
